For data set [1], the system named is Nakaseomyces glabratus. In words: Antifungal activity against Candida glabrata C624 by broth dilution method. In kind it is functional. The note with it: read-out: MIC100. A general note: Dilution methods test growth across graded concentrations, often in twofold steps.
Data set [2] concerns the target T1, Beta-1,3-glucan synthase (Candida albicans, UniProt O13383).
T1 sequence (O13383 whole entry): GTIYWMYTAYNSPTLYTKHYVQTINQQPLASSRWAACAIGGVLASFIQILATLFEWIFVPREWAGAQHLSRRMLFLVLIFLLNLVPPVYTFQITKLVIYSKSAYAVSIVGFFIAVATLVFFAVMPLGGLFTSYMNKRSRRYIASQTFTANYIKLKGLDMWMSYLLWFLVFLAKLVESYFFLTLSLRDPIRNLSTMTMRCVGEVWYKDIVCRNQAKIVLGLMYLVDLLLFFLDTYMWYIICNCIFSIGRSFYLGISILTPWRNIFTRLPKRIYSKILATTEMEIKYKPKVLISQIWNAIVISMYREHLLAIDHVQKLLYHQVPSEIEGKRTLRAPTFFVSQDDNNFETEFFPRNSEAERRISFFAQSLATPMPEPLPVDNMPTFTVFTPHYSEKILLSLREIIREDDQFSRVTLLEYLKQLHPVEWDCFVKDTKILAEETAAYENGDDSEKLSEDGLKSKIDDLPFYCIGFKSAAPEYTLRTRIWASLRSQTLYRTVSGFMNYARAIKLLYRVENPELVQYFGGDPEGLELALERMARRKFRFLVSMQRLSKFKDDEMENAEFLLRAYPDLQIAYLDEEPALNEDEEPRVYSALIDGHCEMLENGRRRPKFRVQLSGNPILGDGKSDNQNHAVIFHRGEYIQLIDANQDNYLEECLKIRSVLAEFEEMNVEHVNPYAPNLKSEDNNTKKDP
The experiment in a line: Inhibition of glucan synthase in Candida albicans BWP17 membrane. The data set is classed as cell membranes.

Data set [3] relates to Candida albicans. In words: Antifungal activity against Candida albicans C693 by broth dilution method. In kind it is functional. The note with it: read-out: MIC100.
In data set [4] the test system is Candida albicans. In words: Antifungal activity against Candida albicans C43 by broth dilution method. In kind it is functional. The note with it: read-out: MIC100.
Data set [5] relates to Aspergillus fumigatus. The experiment in a line: Antifungal activity against Aspergillus fumigatus ND158 by broth dilution method. In kind it is functional. The note with it: read-out: MEC.
Data set [6] can be described thus: AUC (0 to 6 hrs) in rat at 10 mg/kg, po. The data set is classed as ADME, organism-based. Also noted: time < 6 hr, dose 10 mg/kg, route oral. The settings on record: plasma.
Data set [7] has as its system Candida albicans. The experiment in a line: Antifungal activity against Candida albicans C375 by broth dilution method. In kind it is functional. The settings on record: read-out: MIC100.
Data set [8] in a line: Clearance in rat hepatocytes assessed per million cells. In kind it is ADME, cell-based, Hepatocyte. The note with it: read-out: CLH.
The subject of data set [9] is Candida albicans. The experiment in a line: Antifungal activity against Candida albicans C43 by broth dilution method in presence of 25% human serum. In kind it is functional. The note with it: read-out: MIC100.
Data set [10] has as its system Candida albicans. In words: Antifungal activity against Candida albicans C43 systemically infected in mouse assessed as reduction in fungal burden in kidney at 100 mg/kg, ip administered daily for 4 days relative to caspofungin. In kind it is functional, organism-based. More on the design: dose 100 mg/kg.
The test system of data set [11] is Candida albicans. The experiment in a line: Antifungal activity against Candida albicans C43 systemically infected in mouse assessed as reduction in fungal burden in kidney at 100 mg/kg, ip administered daily for 4 days relative to vehicle treated control. More on the design: dose 100 mg/kg. In kind it is functional, organism-based.

This note sets out measurements from ChEMBL document CHEMBL2046331, “Lead optimization of a sulfonylurea-based piperazine pyridazinone series of glucan synthase inhibitors” (Bioorg Med Chem Lett, 2012).

≈ marks a conversion by molar mass, not a printed value. Calls of active or inactive are those of the source. The rule behind the calls is not given here. Where only a bound is given, the exact number is not on record here.

What is called IC50 is the concentration that gives 50% inhibition. Read a low IC50 as greater potency in that assay. As usually defined, the AUC(0-t) is the area under the concentration-time curve up to a stated or last time point.

As for `N=C/C(=C(/OC1CCCC1)C(=O)Nc1cccc(Cl)c1)N1CCN(S(=O)(=O)NCc2ccccc2)CC1`, the MIC in data set [1] is below 0.02 µg/mL; in [3] it was 0.03 µg/mL (≈ 0.0549 µM). Also, the IC50 in [2] is 87.9 nM.
For `COc1ccc(CNS(=O)(=O)N2CCN(/C(C=N)=C(\OCC3(C)CC3)C(=O)Nc3cccc(Cl)c3)CC2)cc1OC` the same measures were 0.06 µg/mL (≈ 0.099 µM), 0.26 µg/mL (≈ 0.429 µM) and 297 nM.
For the molecule `CC1(CO/C(C(=O)Nc2cccc(Cl)c2)=C(/C=N)N2CCN(S(=O)(=O)NCc3cccnc3)CC2)CC1`, the MIC in data set [1] was 2.08 µg/mL (≈ 3.8 µM); in data set [3] it was 1.04 µg/mL (≈ 1.9 µM). The same molecule gave an IC50 in [2] of 201 nM.
On the same counts, the results for `N=C/C(=C(/OC1CCCC1)C(=O)Nc1cccc(Cl)c1)N1CCN(S(N)(=O)=O)CC1` are 16.7 µg/mL (≈ 36.6 µM), above 33 µg/mL and 42100 nM.
On the same counts, the results for `CC(C)N(C)S(=O)(=O)N1CCN(/C(C=N)=C(\OC2CCCC2)C(=O)Nc2cccc(Cl)c2)CC1` are 0.39 µg/mL (≈ 0.762 µM), 10 µg/mL (≈ 19.5 µM) and 1450 nM.
As for `CC(NS(=O)(=O)N1CCN(/C(C=N)=C(\OCC2(C)CC2)C(=O)Nc2cccc(Cl)c2)CC1)c1cccc(N)c1` (configuration not stated), the MIC in data set [4] was 4.17 µg/mL (≈ 7.25 µM); in data set [1], 1.04 µg/mL (≈ 1.81 µM); in data set [7] it was 8.35 µg/mL (≈ 14.5 µM); in [3], 1.04 µg/mL (≈ 1.81 µM). Besides, the minimal effective concentration in data set [5] is 16.7 µg/mL. In data set [6], the AUC(0-t) at 6 h was found to be 1300 ng·h/mL. Also, inhibition in data set [2] was half-maximal at 522 nM (IC50).
Consider `COC(=O)c1ccc(CNS(=O)(=O)N2CCN(/C(C=N)=C(\OCC3(C)CC3)C(=O)Nc3cccc(Cl)c3)CC2)cc1`, for which the results for the MIC in [1] and in [3] were 0.13 µg/mL (≈ 0.215 µM) and 0.52 µg/mL (≈ 0.861 µM), respectively. In [2], the IC50 was 530 nM.
For `CC(C)NS(=O)(=O)N1CCN(/C(C=N)=C(\OC2CCCC2)C(=O)Nc2cccc(Cl)c2)CC1` the same measures were 0.03 µg/mL (≈ 0.0602 µM), 0.52 µg/mL (≈ 1.04 µM) and 361 nM.
On to `COc1cc(CNS(=O)(=O)N2CCN(/C(C=N)=C(\OCC3(C)CC3)C(=O)Nc3cccc(Cl)c3)CC2)ccc1N`, for which the MIC in data set [4] was found to be 1.04 µg/mL (≈ 1.76 µM); in data set [1] it was 0.52 µg/mL (≈ 0.88 µM); in [7], 4.17 µg/mL (≈ 7.05 µM); in data set [9], 4.17 µg/mL; in data set [3] it was 0.52 µg/mL (≈ 0.88 µM). Besides, the hepatocyte CLint in data set [8] was 12.6 µL/min/1e6 cells. Also, the minimal effective concentration in data set [5] was found to be 4.17 µg/mL. The same molecule had an AUC(0-t) at 6 h in [6] of 860 ng·h/mL. Further, the result in [10] and in data set [11] was inactive. In [2], this molecule had a half-maximal inhibitory concentration (IC50) of 157 nM.
For `CC1(CO/C(C(=O)Nc2cccc(Cl)c2)=C(/C=N)N2CCN(S(=O)(=O)NCc3nc4ccccc4s3)CC2)CC1`, the MIC in [1] and in data set [3] was 0.26 µg/mL (≈ 0.431 µM) each time. 398 nM corresponded to half-maximal inhibition in [2] (IC50).
For `CC1(CO/C(C(=O)Nc2cccc(Cl)c2)=C(/C=N)N2CCN(S(=O)(=O)NCc3ccncc3)CC2)CC1`, the MIC in data set [1] was 2.08 µg/mL (≈ 3.8 µM); in data set [3], 0.52 µg/mL (≈ 0.95 µM). Also, the IC50 in data set [2] is 91.4 nM.
With `COc1ccc(CNS(=O)(=O)N2CCN(/C(C=N)=C(\OCC3(C)CC3)C(=O)Nc3cccc(Cl)c3)CC2)cc1N`, the MIC in data set [4] was 0.52 µg/mL (≈ 0.88 µM); in data set [1] it was 0.52 µg/mL (≈ 0.88 µM); in [7], 4.17 µg/mL (≈ 7.05 µM); in data set [9], 2.08 µg/mL; in [3], 0.26 µg/mL (≈ 0.44 µM). Also, the hepatocyte CLint in [8] amounted to 15 µL/min/1e6 cells. Further, in data set [5], the minimal effective concentration worked out at 4.17 µg/mL. In data set [6], this molecule displayed an area under the curve AUC(0-t) at 6 h of 440 ng·h/mL. In addition, the IC50 in [2] is 237 nM.
In the case of `CC1(CO/C(C(=O)Nc2cccc(Cl)c2)=C(/C=N)N2CCN(S(=O)(=O)NCc3nc4cc(Cl)ccc4o3)CC2)CC1`, the figures for the MIC in data set [1] and in [3] were 0.52 µg/mL (≈ 0.837 µM) and 2.08 µg/mL (≈ 3.35 µM), respectively. Further, the concentration for half-maximal inhibition (IC50) in [2] was 1300 nM.
